“Also recorded” adds a separate entry of the source.
Key:
[1] = system: EGF receptor (EGFR) phosphorylation in REC12 cells; assay: Western blot of phosphorylated EGFR in normal REC12 cells; assay type: cell-based, mouse; conditions: 10 μM, REC12 normal renal epithelial cells
Source text: (§1) REC11 cystic cell line is a conditionally immortalized epithelial collecting tubule (CT) cell line derived from the cystic kidneys of the BPK mouse model of human ARPKD crossed to the ImmortoMouse. The BPK mouse as a human ARPKD model has been described in Nauta J. et al., Pediatr Nephrol 1993, 7:163-172 and Nauta J. et al., Pediatr Res 1995, 37:755-763. The procedures for immortalization, cell isolation, cell culture and the complete phenotypic characterization of this cell line have been described in detail in Sweeney W. E. et al., Am J Physiol C Physiol 2001, 281:C1695-705. All analysis and experiments were performed on REC11 cells grown for a minimum 6 days under non-permissive conditions to eliminate residual Large T. REC12 cell line is a conditionally immortalized epithelial collecting tubule (CT) cell line derived from the wild-type Balb/C littermates. The Balb/C is the strain of mice in which the BPK mutation arose (Nauta J. et al., Pediatr Nephrol 1993, 7:163-172 and Nauta J. et al., Pediatr Res 1995, 37:755-763).
REC11 cells (FIG. 2, lanes A and B) and control renal epithelial cells (REC12 cells: FIG. 2, lanes C and D) were grown for 10 days. Next, the cells were exposed to vehicle (lanes A and C) or 10 μM HET0016 (lanes B and D) and then harvested for assessment of the expression of phosphorylated EGFR by Western Blot analysis.

cystic BPK cells = assay: BrdU incorporation in cystic BPK cells; assay type: cell-based, mouse; conditions: 36 hours, vehicle 118
Experimental: To determine the level of proliferation in the cystic BPK cells, chemically dissimilar inhibitors of cytochrome P450 4A (CYP4A) and 4F (CYP4F) inhibitors, specifically HET-0016 (10 and 20 μM) and DDMS (10 μM), were incubated for 36 hours with the BPK cells. Three hours prior to the harvesting of the cells, 5-bromo-2′-deoxyuridine (BrdU) at a concentration of 30 μM was added to determine the level of cell cycle inhibition. The cells were subsequently methanol fixed and BrdU-positive cells were identified by immunohistology with biotinylated monoclonal anti-BrdU antibody (Zymed, South San Francisco, Calif.). Data were expressed as the percentage of BrdU-labeled cells per 500 counted cells.

Balb/C mice = assay: Chronic HET-0016 treatment of non-cystic Balb/C mice; assay type: in vivo, mouse; conditions: 10 mg/kg/day i.p.
[2] = system: 20-HETE synthesis (cytochrome P450 4A and 4F isoforms); assay: 20-HETE production by renal microsomes of BPK mice dosed with HET-0016; assay type: in vivo, mouse
Experimental: Microsomes were isolated from the cystic BPK and non-cystic Balb/C mouse kidneys as described by Ito O et al. (Am J Physiol Regul Integr Comp Physiol, 280:R822-30, 2001). For the BPK and Balb/C cells, protein lysates were harvested by homogenization and subsequent sonication of the cell pellets. For the 20-HETE production assay, the isolated protein (500 μg) was incubated in 0.5 mL of 100 mM potassium phosphate buffer containing 40 μM cold arachidonic acid and 2 mM NADPH. In some samples, the 20-HETE synthesis inhibitor, HET-0016, was added at a concentration of 1 μM. The reaction was incubated at 37° C. and equilibrated with 100% O2 for 30 minutes. The reaction was stopped by acidification to pH 3.5 with 1M formic acid. The lipids were extracted in the presence of 20-HETE-d6 (2 ng) using 3:1 ethyl acetate:water and dried down under nitrogen. The samples were reconstituted in 1:1 methanol:water and the production of 20-HETE was measured using a liquid chromatograph-triple quadrupole mass spectrometer (ABI 3000, Applied Biosystems, Inc., Foster City, Calif.) as described in Williams J M et al. Hypertension, 49:687-94, 2007.
To further examine the biological role of 20-HETE in the epithelial cell proliferation, post-natal day 7, 10 or 21 day old BPK mice were treated with an intraperitoneal injection of vehicle or HET-0016 (10 mg/kg/day) 2 hours prior to sacrifice at which point the kidneys were removed for measurement of 20-HETE synthesis.

PCK rats = assay: Chronic HET0016 treatment of PCK rats (KW/BW, LW/BW, morphology); assay type: in vivo, rat
Experimental: PCK rats, an orthologous model of human ARPKD (PKHD1), received daily IP injections of vehicle or HET0016 at 10 mg/kg/daily, starting at postnatal day 7 (PN-7). Animals were treated daily from PN-7 to PN-55 (48 doses). Kidney and liver were harvested at PN-55.

REC11 cells = assay: BrdU proliferation of EGF-stimulated REC11 cystic renal epithelial cells; assay type: cell-based, mouse; conditions: 36 hrs, after EGF 25 ng/ml for 6 hours
Source text: as §1, with “T.” for “T. REC12 cell line is a conditionally immortalized epithelial collecting tubule (CT) cell line derived from the wild-type Balb/C littermates. The Balb/C is the strain of mice in which the BPK mutation arose (Nauta J. et al., Pediatr Nephrol 1993, 7:163-172 and Nauta J. et al., Pediatr Res 1995, 37:755-763).”
Proliferation of REC11 cells was stimulated by exposure of the cells for 6 hours with EGF (25 ng/ml). Next, the cells were treated with vehicle, HET0016 (10 μM, a 20-HETE synthesis inhibitor), HET0016 (20 μM), DDMS (10 μM, a 20-HETE synthesis inhibitor), or WIT-002 (10 μM, a 20-HETE antagonist) for 36 hrs, pulsed with BrdU, and then stained for BrdU labeled cells to determine the degree of cell proliferation. […] Cells treated with a higher dose of HET0016 (20 μM) (column C) reduced proliferation by 75% (p<0.020). Cells treated with another chemically dissimilar inhibitor of the synthesis of 20-HETE, DDMS (10 μM) (column D), reduced proliferation by 47% (p<0.05). Cells treated with WIT-002 (10 μM) (column E) reduced proliferation by 25%.

[3] = Balb/c (+/+), post-natal day 7-20, day 21
[4] = 10 mg/kg/daily IP, PN-7 to PN-55
[5] = 10 mg/kg/day IP, PN-7 to PN-55, 10 mg/kg/day

Substance: N-hydroxy-N-(4-butyl-2-methylphenyl)-formamidine [HET0016]
- phosphorylation of EGFR [1]: but not in normal renal epithelial cells; also recorded: lack of an effect
- BrdU-positive cells per 500 total cells counted (cystic BPK cells; 10 μM): 52 BrdU(+) cells
- BrdU-positive cells per 500 total cells counted (cystic BPK cells; 20 μM): 38 BrdU(+) cells
- kidney weight, body weight and KW/BW ratio vs vehicle (Balb/C mice; Balb/C mice): unchanged
- Body weight (Balb/C mice; [3]): 10.5 ± 1.3 g
- KW/BW (Balb/C mice; [3]): 1.3 ± 0.2 %
- Kidney Weight (Balb/C mice; [3]): 0.13 ± 0.02 g
- effect on other metabolites of arachidonic acid formed by the kidney ([2]; 10 mg/kg/day i.p.): no apparent inhibition
- inhibition of the formation of 20-HETE ([2]; 10 mg/kg/day i.p. 2 hours prior to sacrifice, renal microsomes): > 95%
- production of 20-HETE ([2]; 10 mg/kg/day i.p. 2 hours prior to sacrifice, renal microsomes, vehicle 1.06±0.33): 0.04±0.02 pmoles/min/mg protein
- BW (PCK rats; [4]): 93
- KW (% BW) (PCK rats; [4]): 0.97 % BW
- LW (% BW) (PCK rats; [4]): 4.3 % BW
- decrease in KW/BW ratio (PCK rats; 10 mg/kg/daily IP, vs vehicle): 23%
- decrease in LW/BW ratio (PCK rats; 10 mg/kg/daily IP, vs vehicle): 25%
- decrease in total body weight (PCK rats; 10 mg/kg/daily IP, vs vehicle): 14%
- kidney morphology: cysts and tubular epithelial proliferation (PCK rats; [5]): dramatic reduction in size and number of cysts and tubular epithelial proliferation; also recorded: dramatic reduction in cyst size and tubular epithelial proliferation
- liver morphology: biliary cysts and biliary epithelial proliferation (PCK rats; [5]): dramatic reduction in size and number of cysts and reduced biliary epithelial proliferation; also recorded: dramatic reduction in the size and number of biliary cysts and in the proliferation of biliary epithelial cells
- reduction of proliferation (BrdU labeled cells) vs vehicle (REC11 cells; 10 μM): 66%
- reduction of proliferation (BrdU labeled cells) vs vehicle (REC11 cells; 20 μM): 75%
